# Laboratory results reported in PMC2848180 (American journal of obstetrics and gynecology, 2010).
# Values joined by “and” are separate entries in the source; they are usually repeats but may differ in a detail not shown here. Identical values can stand only once.
# How the values were obtained:
# [1] = system: P-gp, BCRP, and MRP1; settings: 100 nM drug, 1 μM KO143, placental IOVs, 1 min
# [2] = molecular target: MRP1 (Homo sapiens, UniProt P33527); settings: placental IOVs
# [3] = system: placental ABC transporters (placental IOVs); type: in vitro ADME, human; settings: for total ATP-dependent uptake by placental IOVs: 100 nM radiolabeled drug, 1 min, pool of 60 term placentas
# [4] = molecular target: T1, P-gp (Homo sapiens, UniProt P08183); settings: placental IOVs
# T1 sequence (P08183 whole entry): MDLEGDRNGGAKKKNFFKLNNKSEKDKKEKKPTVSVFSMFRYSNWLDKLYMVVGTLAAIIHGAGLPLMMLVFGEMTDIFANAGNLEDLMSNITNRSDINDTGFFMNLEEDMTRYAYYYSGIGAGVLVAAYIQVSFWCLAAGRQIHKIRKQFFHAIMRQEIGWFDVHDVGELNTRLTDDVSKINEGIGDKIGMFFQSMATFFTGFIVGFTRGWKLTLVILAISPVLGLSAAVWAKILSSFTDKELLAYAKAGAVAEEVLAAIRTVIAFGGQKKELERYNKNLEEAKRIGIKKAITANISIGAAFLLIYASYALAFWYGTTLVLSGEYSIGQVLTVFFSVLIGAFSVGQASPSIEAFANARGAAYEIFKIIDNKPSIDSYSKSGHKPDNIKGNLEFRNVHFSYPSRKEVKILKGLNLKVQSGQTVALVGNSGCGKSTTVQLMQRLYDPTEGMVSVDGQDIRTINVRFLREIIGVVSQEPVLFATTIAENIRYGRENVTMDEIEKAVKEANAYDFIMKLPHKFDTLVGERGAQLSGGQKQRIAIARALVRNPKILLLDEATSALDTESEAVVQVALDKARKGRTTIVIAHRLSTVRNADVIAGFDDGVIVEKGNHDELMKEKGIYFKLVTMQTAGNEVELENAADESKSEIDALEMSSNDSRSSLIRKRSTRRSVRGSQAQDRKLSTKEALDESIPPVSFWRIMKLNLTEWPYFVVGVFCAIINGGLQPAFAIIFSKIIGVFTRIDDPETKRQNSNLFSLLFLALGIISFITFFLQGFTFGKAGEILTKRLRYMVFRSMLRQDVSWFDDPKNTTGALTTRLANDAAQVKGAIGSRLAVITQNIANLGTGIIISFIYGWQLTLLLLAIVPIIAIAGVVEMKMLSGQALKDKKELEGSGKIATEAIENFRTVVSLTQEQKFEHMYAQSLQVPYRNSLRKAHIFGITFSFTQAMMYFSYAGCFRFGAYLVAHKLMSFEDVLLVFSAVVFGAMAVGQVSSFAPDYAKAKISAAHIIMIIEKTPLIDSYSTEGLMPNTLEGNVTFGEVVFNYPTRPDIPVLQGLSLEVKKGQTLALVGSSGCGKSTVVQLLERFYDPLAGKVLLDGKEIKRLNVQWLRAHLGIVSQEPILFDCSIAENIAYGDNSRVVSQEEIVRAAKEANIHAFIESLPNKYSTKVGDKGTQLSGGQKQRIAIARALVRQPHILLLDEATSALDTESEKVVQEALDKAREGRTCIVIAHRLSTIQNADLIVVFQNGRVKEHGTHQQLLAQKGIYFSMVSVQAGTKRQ
# [5] = molecular target: T1, P-gp; assay: Inhibition of [3H]-rosiglitazone uptake by placental IOVs by cold metformin; type: in vitro ADME
# [6] = molecular target: T2, BCRP (Homo sapiens, UniProt Q9UNQ0); settings: 100 nM drug, 25 nM KO143, placental IOVs, 1 min
# T2 sequence (Q9UNQ0 1-655): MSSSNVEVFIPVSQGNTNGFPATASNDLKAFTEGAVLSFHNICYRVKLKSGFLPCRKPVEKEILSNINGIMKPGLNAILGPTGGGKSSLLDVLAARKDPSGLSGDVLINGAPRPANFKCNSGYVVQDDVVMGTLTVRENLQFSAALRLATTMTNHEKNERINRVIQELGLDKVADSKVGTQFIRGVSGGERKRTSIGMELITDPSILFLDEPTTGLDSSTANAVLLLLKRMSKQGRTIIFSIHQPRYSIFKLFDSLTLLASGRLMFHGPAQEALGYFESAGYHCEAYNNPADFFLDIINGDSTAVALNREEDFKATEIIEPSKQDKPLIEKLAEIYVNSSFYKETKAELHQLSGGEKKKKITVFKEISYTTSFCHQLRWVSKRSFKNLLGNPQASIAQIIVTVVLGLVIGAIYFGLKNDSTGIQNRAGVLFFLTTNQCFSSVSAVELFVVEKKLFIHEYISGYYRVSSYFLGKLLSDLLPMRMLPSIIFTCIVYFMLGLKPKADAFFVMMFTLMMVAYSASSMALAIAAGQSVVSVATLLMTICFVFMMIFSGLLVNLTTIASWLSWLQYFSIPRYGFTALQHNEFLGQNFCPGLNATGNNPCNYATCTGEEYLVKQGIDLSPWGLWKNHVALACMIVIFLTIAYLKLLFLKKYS
# [7] = molecular target: T1, P-gp; settings: placental brush border membrane vesicles; cited from earlier work
# [8] = 100 nM, ABC transporters examined
# MRP1, sequence (P33527 whole entry): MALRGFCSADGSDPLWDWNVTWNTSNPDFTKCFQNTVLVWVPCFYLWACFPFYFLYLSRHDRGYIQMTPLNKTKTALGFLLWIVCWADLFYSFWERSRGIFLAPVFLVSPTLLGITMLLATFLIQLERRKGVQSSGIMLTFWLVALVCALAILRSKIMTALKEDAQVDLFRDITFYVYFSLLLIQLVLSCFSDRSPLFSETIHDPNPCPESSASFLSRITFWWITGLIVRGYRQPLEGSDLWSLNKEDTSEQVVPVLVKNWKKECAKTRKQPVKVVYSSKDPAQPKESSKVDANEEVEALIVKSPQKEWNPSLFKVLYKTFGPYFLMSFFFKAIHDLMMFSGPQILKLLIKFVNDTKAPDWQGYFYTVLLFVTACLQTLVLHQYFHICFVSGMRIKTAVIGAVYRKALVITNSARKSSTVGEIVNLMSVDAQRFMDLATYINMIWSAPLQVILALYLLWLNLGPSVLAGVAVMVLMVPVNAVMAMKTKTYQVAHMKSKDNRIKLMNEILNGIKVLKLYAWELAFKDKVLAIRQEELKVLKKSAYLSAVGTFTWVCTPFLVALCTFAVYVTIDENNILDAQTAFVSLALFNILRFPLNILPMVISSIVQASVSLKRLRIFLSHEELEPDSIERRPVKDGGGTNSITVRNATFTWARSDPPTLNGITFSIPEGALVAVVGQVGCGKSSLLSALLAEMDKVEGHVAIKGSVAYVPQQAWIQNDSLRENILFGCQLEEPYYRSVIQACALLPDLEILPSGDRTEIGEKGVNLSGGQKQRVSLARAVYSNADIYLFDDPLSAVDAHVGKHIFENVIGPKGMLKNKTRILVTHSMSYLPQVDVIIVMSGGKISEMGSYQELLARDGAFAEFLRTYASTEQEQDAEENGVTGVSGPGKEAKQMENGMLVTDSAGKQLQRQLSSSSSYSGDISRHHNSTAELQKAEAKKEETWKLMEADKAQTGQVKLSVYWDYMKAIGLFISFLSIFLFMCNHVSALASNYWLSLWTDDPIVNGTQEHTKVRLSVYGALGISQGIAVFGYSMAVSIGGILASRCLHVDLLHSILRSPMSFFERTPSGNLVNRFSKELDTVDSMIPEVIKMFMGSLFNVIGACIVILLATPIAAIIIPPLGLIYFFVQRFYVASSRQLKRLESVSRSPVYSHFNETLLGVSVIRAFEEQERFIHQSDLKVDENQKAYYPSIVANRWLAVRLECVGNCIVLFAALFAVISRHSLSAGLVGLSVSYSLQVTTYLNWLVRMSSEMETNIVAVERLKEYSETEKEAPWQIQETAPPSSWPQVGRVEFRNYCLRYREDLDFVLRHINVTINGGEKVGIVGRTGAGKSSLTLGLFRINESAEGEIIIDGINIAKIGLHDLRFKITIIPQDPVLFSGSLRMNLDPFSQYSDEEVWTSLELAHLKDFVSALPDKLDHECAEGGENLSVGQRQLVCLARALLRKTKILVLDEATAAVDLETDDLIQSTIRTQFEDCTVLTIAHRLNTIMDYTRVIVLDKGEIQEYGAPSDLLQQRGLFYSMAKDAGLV
smiles,measurement,setting,value
CN(C)C(=N)N=C(N)N [metformin],"decrease of uptake on total inhibition of P-gp, BCRP, and MRP1 using 1 μM KO143",[1],89 ± 6%
same,decrease of uptake on inhibition of MRP1 by indomethacin (transport by MRP1),"[2]; 100 nM drug, 100 μM indomethacin, 1 min",no effect
same,total ATP-dependent uptake by placental IOVs,[3],35 pmol/mg protein*min
same,fold greater total transport than glyburide,[3]; [8],10 fold
same,fold greater total transport than rosiglitazone,[3]; [8],30 fold
same,decrease of uptake on inhibition of P-gp by verapamil (transport by P-gp),"[4]; 100 nM drug, 600 μM verapamil, 1 min",58 ± 20% and 58 ± 10%
same,apparent Kt of ATP-dependent transport by P-gp,[4],100 ± 85 nM
same,IC50,[5],~0.6 µM
same,inhibition at 1 min,"[5]; human, placental inside-out vesicles (IOVs), probe [3H]-rosiglitazone, 100 nM",69 ± 6%
same,decrease of uptake on inhibition of BCRP by 25 nM KO143 (transport by BCRP),[6],25 ± 14% and 25 ± 8%
COc1ccc(Cl)cc1C(=O)NCCc1ccc(S(=O)(=O)NC(=O)NC2CCCCC2)cc1 [glyburide],"decrease of uptake on total inhibition of P-gp, BCRP, and MRP1 using 1 μM KO143",[1],78 ± 4%
same,apparent Kt of ATP-dependent transport by MRP1,[2],358 ± 195 nM
same,total ATP-dependent uptake by placental IOVs,[3],3.2 ± 0.3 pmol/mg protein*min
CN(CCOc1ccc(CC2SC(=O)NC2=O)cc1)c1ccccn1 (stereo not shown) [rosiglitazone],total ATP-dependent uptake by placental IOVs,[3],1.2 ± 0.2 pmol/mg protein*min
CC(=O)O[C@H]1C(=O)[C@@]2(C)[C@H]([C@H](OC(=O)c3ccccc3)[C@]3(O)C[C@H](OC(=O)[C@H](O)[C@@H](NC(=O)c4ccccc4)c4ccccc4)C(C)=C1C3(C)C)[C@]1(OC(C)=O)CO[C@@H]1C[C@@H]2O [paclitaxel],Kt of P-gp-mediated transport,[7],66 ± 38 nM
same,Vmax of P-gp-mediated transport,[7],20 ± 3 pmol/mg protein*min
